Read-outs that look alike come from different tables or passages of the source.
Tested on: U-373MG cells
Assay type: cell-based, human

Row | Molecule | effect on the difference in plaque size between VSV-rp30 and VSV-G/GFP | effect on the difference in plaque size between VSV-rp30 and VSV-G/GFP (10 μM, 24 hrs)
1 | CN[C@@H]1C[C@H]2O[C@@](C)([C@@H]1OC)n1c3ccccc3c3c4c(c5c6ccccc6n2c5c31)C(=O)NC4 [Staurosporine, staurosporine] | significant attenuation of the difference in plaque size | 
2 | tyrphostin 51 | no significant effect on the difference in plaque size | 
3 | O=c1c(-c2ccc(O)cc2)coc2cc(O)cc(O)c12 [Genistein, genistein] |  | significantly attenuated the difference in plaque size

— patent US8481297B2 (priority 2009, dated 2013)
